Assays:
[1] = target: T1, recombinant hGYS1/GN1 protein (Homo sapiens, UniProt P13807); assay: GYS1 coupled enzyme assay (PK/LDH); format: biochemical; conditions: geometric mean of at least 2 assay runs; NADH absorbance at 340 nm
T1 sequence (P13807 1-737): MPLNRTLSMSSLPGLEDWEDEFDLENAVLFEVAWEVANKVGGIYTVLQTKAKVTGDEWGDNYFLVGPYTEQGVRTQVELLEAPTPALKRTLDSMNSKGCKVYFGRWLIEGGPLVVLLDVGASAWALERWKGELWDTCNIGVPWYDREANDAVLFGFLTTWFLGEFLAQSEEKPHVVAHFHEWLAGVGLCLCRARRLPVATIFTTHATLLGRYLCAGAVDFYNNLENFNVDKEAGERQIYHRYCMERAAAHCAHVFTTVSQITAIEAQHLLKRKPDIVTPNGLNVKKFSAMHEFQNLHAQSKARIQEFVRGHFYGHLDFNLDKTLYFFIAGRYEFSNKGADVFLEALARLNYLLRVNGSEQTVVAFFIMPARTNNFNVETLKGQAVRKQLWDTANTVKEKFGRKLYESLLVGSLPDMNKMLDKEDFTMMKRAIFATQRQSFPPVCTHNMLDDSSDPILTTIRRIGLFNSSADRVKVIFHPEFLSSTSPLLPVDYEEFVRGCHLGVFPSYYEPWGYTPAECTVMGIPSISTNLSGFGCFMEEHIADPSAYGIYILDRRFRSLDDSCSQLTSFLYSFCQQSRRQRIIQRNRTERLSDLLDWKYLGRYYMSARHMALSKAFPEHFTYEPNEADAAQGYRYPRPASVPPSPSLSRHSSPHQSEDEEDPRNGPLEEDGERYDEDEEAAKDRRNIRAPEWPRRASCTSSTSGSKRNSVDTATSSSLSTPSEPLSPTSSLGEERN
T1 sequence (P46976 1-350 partner): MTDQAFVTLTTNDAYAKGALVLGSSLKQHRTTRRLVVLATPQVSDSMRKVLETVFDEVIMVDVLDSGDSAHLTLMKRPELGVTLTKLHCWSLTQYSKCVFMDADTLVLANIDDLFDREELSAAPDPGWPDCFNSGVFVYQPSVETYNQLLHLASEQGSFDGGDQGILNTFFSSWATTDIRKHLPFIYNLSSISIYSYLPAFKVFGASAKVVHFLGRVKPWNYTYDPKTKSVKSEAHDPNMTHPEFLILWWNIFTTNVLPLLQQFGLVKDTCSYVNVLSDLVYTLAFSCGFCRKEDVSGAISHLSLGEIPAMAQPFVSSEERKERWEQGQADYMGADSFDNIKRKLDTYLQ
Description: (§1) The GYS1 coupled enzyme assay is a kinetic biochemical assay that indirectly quantifies the rate of glycogen synthesis by coupling the conversion of GYS1 substrate UDP-glucose into UDP with downstream enzymatic reactions. UDP is released from UDP-glucose as glucose monomers are linked into the growing glycogen strand by GYS1. The coupled assay then proceeds with pyruvate kinase utilizing UDP and phospho(enol)pyruvate (PEP) to form pyruvate. Lactate dehydrogenase then converts pyruvate and NADH into lactate and NAD+. Oxidation of NADH to NAD+ can be measured continuously with a plate reader by quantifying the decrease in NADH absorbance at 340 nm over time.
Compounds that inhibit the hGYS1 enzyme and, subsequently, the downstream conversion of NADH to NAD+, were tested using assay ready plates (black, clear bottom 384 well plates) in a final DMSO reaction volume of 2.5% DMSO. The Assay Buffer contained 50 mM Tris pH 7.5, 2 mM MgCl2, and 100 mM KCl. Fresh stocks of BSA at a final concentration of 0.02% and TCEP at 1 mM were added before splitting buffer into hGYS1 buffer and substrate buffer. To the hGYS1 buffer, rabbit liver glycogen was added at a final concentration of 0.2% glycogen. Glucose-6-Phosphate was added at 1 mM, recombinant hGYS1/GN1 protein was added at 50 nM to the substrate buffer, phosphoenolpyruvate (PEP) was added at 2 mM, UDP-Glucose was added at 0.8 mM, NADH) was added at 0.6 mM, and Pyruvate Kinase/Lactate Dehydrogenase was added at 20 units/mL. The reaction was initiated by mixing hGYS1 buffer and substrate buffer at a 1:1 ratio. Both buffers were plated using a liquid dispensing device with hGYS1 buffer plated first followed by the substrate buffer. Plates were spun briefly to eliminate air bubbles and are immediately read in continuous mode at an absorbance of 340 nm, for 10 time points in one-minute increments, for a total of 10 minutes. The slope from these 10 time points was normalized to the positive and negative control wells. The duplicate % inhibition values are then averaged and fit to a Hill equation for dose response according to the Levenberg-Marquardt algorithm with the Hill equation maximum set to 100 and the minimum set to 0.
The results are shown in Table 3 below, which reports the IC50 of each compound. Unless otherwise specified, IC50 values are reported as the geometric mean of at least 2 assay runs on separate days. Each run represents the average of a technical replicate, where each compound was assayed twice in the same plate. As shown in the table below, the compounds of the present invention are potent inhibitors of human GYS1.

[2] = target: T2, recombinant hGYS2/GN1 protein (Homo sapiens, UniProt P54840); assay: GYS2 coupled enzyme assay (PK/LDH); format: biochemical; conditions: geometric mean of at least 2 assay runs; NADH absorbance at 340 nm
T2 sequence (P54840 1-703): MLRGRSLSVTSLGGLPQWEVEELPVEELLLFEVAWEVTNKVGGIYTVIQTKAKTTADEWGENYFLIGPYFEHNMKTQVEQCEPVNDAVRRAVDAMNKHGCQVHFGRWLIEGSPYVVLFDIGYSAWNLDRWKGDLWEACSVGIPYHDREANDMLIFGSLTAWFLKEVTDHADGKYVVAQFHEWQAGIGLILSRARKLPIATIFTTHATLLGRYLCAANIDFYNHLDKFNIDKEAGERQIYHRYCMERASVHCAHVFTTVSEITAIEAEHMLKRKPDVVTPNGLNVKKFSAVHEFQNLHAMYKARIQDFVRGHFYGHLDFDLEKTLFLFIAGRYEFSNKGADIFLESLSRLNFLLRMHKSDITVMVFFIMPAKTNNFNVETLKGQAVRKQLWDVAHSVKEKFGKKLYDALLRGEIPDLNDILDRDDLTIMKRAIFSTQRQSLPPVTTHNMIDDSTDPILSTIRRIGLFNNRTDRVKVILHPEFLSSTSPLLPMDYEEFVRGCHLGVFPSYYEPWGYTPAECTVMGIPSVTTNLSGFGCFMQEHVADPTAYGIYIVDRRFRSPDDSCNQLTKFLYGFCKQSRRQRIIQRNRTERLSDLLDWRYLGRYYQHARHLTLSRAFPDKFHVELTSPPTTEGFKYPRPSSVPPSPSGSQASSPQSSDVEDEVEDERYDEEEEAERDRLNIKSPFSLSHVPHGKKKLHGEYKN
T2 sequence (P46976 1-350 partner): T1 sequence (P46976 1-350 partner)
Description: as §1, with “GYS2” for “GYS1”, “GYS2.” for “GYS1.”
Compounds that inhibit the hGYS2 enzyme and, subsequently, the downstream conversion of NADH to NAD+, were tested using assay ready plates (black, clear bottom 384 well plates) in a final DMSO reaction volume of 2.5% DMSO. The Assay Buffer contained 50 mM Tris pH 7.5, 2 mM MgCl2, and 100 mM KCl. Fresh stocks of BSA at a final concentration of 0.02% and TCEP 1 mM were added before splitting buffer into hGYS2 buffer and substrate buffer. To the hGYS2 buffer, rabbit liver glycogen was added at a final concentration of 0.2% glycogen. Glucose-6-Phosphate was added at 2 mM, recombinant hGYS2/GN1 protein was added at 200 nM to the substrate buffer, phosphoenolpyruvate (PEP) was added at 2 mM, UDP-Glucose was added at 2 mM, NADH was added at 0.6 mM, and Pyruvate Kinase/Lactate Dehydrogenase was added at 20 units/mL. The reaction was initiated by mixing hGYS2 buffer and substrate buffer at a 1:1 ratio. Both buffers were plated using a liquid dispensing device with hGYS2 buffer plated first followed by the substrate buffer. Plates were spun briefly to eliminate air bubbles and are immediately read in continuous mode at an absorbance of 340 nm, for 10 time points in one-minute increments, for a total of 10 minutes. The slope from these 10 time points was normalized to the positive and negative control wells. The duplicate % inhibition values are then averaged and fit to a Hill equation for dose response according to the Levenberg-Marquardt algorithm with the Hill equation maximum set to 100 and the minimum set to 0.
The results are shown in Table 5 below, which reports the IC50 of each compound. Unless otherwise specified, IC50 values are reported as the geometric mean of at least 2 assay runs on separate days. As shown in the table below, the compounds of the present invention are not potent inhibitors of human GYS2. […] Each run represents the average of a technical replicate, where each compound was assayed twice in the same plate.

SMILES | IC50 [1] [nM] | IC50 [2] [µM]
CC(C)c1ccc([C@@H](NC(=O)C2CC2)c2cccc3[nH]c(=O)oc23)cc1 (single isomer, unassigned) [compound 15] | 883 | > 100
NC(=O)Nc1ccccc1[C@H](NC(=O)C1CC1)c1ccc(C2CCC2)cc1 (single isomer, unassigned) [compound 18] | 964 | > 100
CNc1ccccc1[C@H](NC(=O)C1CC1)c1ccc(C(C)C)cc1 (single isomer, unassigned) [compound 39] | 502 | > 100
CC(C)c1ccc([C@@H](NC(=O)C2CC2)c2cccnc2N)cc1 (single isomer, unassigned) [compound 51] | 735 | > 100
CC(C)c1ccc([C@@H](NC(=O)C2CC2)c2ccccc2)cc1F (single isomer, unassigned) [compound 52] | 591 | > 100
CC(C)c1ccc([C@@H](NC(=O)C2CC2)c2ccccc2Cl)cc1 (single isomer, unassigned) [compound 58] | 1380 | > 100
CC(C)c1ccc([C@@H](NC(=O)C2CC2)c2ccccc2NC(=O)C2CC2)cc1 (single isomer, unassigned) [compound 61] | 710 | > 100
Cc1ccccc1[C@H](NC(=O)C1CC1)c1ccc(C(C)C)cc1 (single isomer, unassigned) [compound 65] | 514 | > 100
Cc1cccc([C@H](NC(=O)C2CC2)c2ccc(C(C)C)cc2)c1 (single isomer, unassigned) [compound 66] | 2100 | > 100
CC(C)c1ccc([C@@H](NC(=O)C2CC2)c2ccnn2C)cc1 (single isomer, unassigned) [compound 69] | 1820 | > 100
CC(C)c1ccc([C@@H](NC(=O)[C@H]2C[C@@H]2F)c2ccccc2NC(=O)C2CCN(CC(F)(F)F)CC2)cc1 [compound 9, N-(2-((R)-((1R,2S)-2-fluorocyclopropane-1-carboxamido)(4-isopropylphenyl)methyl)phenyl)-1-(2,2,2-trifluoroethyl)piperidine-4-carboxamide] | 956 | > 100
CC(C)c1ccc([C@@H](NC(=O)C2CC2)c2ccccc2NC(=O)[C@H]2CCN2)cc1 [compound 50, (R)-N-(2-((R)-cyclopropanecarboxamido(4-isopropylphenyl)methyl)phenyl)azetidine-2-carboxamide] | 1790 | –
CC(=O)N[C@H]1CCC[C@H]1C(=O)N[C@@H](c1ccccc1)c1ccc(C(C)C)cc1 [compound 55, (1R,2S)-2-acetamido-N-((S)-(4-isopropylphenyl)(phenyl)methyl)cyclopentane-1-carboxamide] | 2420 | –

Compounds with a lower IC50 [1], results first:

IC50 [1] [nM] | IC50 [2] [µM] | SMILES
194 | > 100 | CC(C)c1ccc([C@@H](NC(=O)[C@H]2C[C@@H]2F)c2ccccc2NC(N)=O)cc1F (single isomer, unassigned) [compound 10]
169 | > 100 | CC(C)c1ccc([C@@H](NC(=O)C2CC2)c2cccc3[nH]c(=O)[nH]c23)cc1 (single isomer, unassigned) [compound 29]
378 | > 100 | CC(=O)Nc1ccc(F)cc1[C@H](NC(=O)C1CC1)c1ccc(C(C)C)cc1 (single isomer, unassigned) [compound 44]
404 | > 100 | CC(C)c1ccc([C@@H](NC(=O)C2CC2)c2ccccc2N)cc1 (single isomer, unassigned) [compound 64]
397 | > 100 | COc1ccccc1[C@H](NC(=O)C1CC1)c1ccc(C(C)C)cc1 (single isomer, unassigned) [compound 71]
285 | > 100 | CC(=O)Nc1ccccc1[C@H](NC(=O)C1CC1)c1ccc(C(C)C)cc1 [compound 1, (R)-N-((2-acetamidophenyl)(4-isopropylphenyl)methyl)cyclopropanecarboxamide]
